Oligonucleotides are written 5' to 3', each unit as a sugar letter and its base; * is a phosphorothioate linkage, no mark a phosphodiester; rarer units and linkages stand in square brackets, end groups in braces. Plain capitals give the bases only. d = 2'-deoxy (DNA); r = 2'-OH (RNA)
Each substance was assayed against RHOQ (assay: reporter assay of Huesken 2005). Details: siRNA.
With “sense rUrGrGrArUrCrUrGrCrCrUrUrArUrUrGrCrArUdTdT / antisense rArUrGrCrArArUrArArGrGrCrArGrArUrCrCrAdCdA” the normalised inhibition (eCFP-eYFP dual reporter) was 88.7%.
“sense rUrGrGrArUrGrUrCrUrUrCrUrUrUrCrUrUrCrCdTdT / antisense rGrGrArArGrArArArGrArArGrArCrArUrCrCrAdAdA” showed a normalised inhibition (eCFP-eYFP dual reporter) of 68.4%.
Work on “sense rUrGrUrArUrGrUrGrArGrCrUrUrUrGrUrArGrAdTdT / antisense rUrCrUrArCrArArArGrCrUrCrArCrArUrArCrAdAdC” yielded a normalised inhibition (eCFP-eYFP dual reporter) of 75.3%.
“sense rUrGrUrGrArArCrArArCrCrUrArArUrGrCrArUdTdT / antisense rArUrGrCrArUrUrArGrGrUrUrGrUrUrCrArCrAdAdT” was tested, and the normalised inhibition (eCFP-eYFP dual reporter) was 75.4%.
With “sense rUrGrUrGrGrArUrCrUrGrCrCrUrUrArUrUrGrCdTdT / antisense rGrCrArArUrArArGrGrCrArGrArUrCrCrArCrAdGdC” the normalised inhibition (eCFP-eYFP dual reporter) was 68.8%.
Substance “sense rUrUrArArUrUrCrArCrArUrGrArCrUrUrGrArGdTdT / antisense rCrUrCrArArGrUrCrArUrGrUrGrArArUrUrArAdCdA” has a normalised inhibition (eCFP-eYFP dual reporter) of 54.4%.
Work on “sense rUrUrCrCrArArGrArArArUrGrGrUrGrGrUrUrCdTdT / antisense rGrArArCrCrArCrCrArUrUrUrCrUrUrGrGrArAdGdA” yielded a normalised inhibition (eCFP-eYFP dual reporter) of 38.3%.
“sense rUrUrGrArArArArUrGrArCrArGrCrCrUrUrArAdTdT / antisense rUrUrArArGrGrCrUrGrUrCrArUrUrUrUrCrArAdGdT” was tested, and the normalised inhibition (eCFP-eYFP dual reporter) was 87.1%.
“sense rUrUrGrCrUrGrUrUrGrCrCrCrArArArUrUrArUdTdT / antisense rArUrArArUrUrUrGrGrGrCrArArCrArGrCrArAdGdT” was tested, and the normalised inhibition (eCFP-eYFP dual reporter) was 83.5%.
With “sense rUrUrGrUrGrArArCrArArCrCrUrArArUrGrCrAdTdT / antisense rUrGrCrArUrUrArGrGrUrUrGrUrUrCrArCrArAdTdG” the normalised inhibition (eCFP-eYFP dual reporter) was 83%.
In the case of “sense rUrUrUrCrUrUrArUrUrUrArArUrUrUrUrGrGrUdTdT / antisense rArCrCrArArArArUrUrArArArUrArArGrArArAdGdT”, the normalised inhibition (eCFP-eYFP dual reporter) was 44.1%.

What follows are substances tested against UBE2I (assay: reporter assay of Huesken 2005). Details: siRNA.
Work on “sense rArArArUrGrUrArArArUrUrCrGrArArCrCrArCdTdT / antisense rGrUrGrGrUrUrCrGrArArUrUrUrArCrArUrUrUdTdG” yielded a normalised inhibition (eCFP-eYFP dual reporter) of 53.9%.
In the case of “sense rArArCrCrArArArUrArUrCrCrArArGrArCrCrCdTdT / antisense rGrGrGrUrCrUrUrGrGrArUrArUrUrUrGrGrUrUdCdA”, the normalised inhibition (eCFP-eYFP dual reporter) was 48.9%.
“sense rArArCrCrUrCrArUrGrArArCrUrGrGrGrArGrUdTdT / antisense rArCrUrCrCrCrArGrUrUrCrArUrGrArGrGrUrUdCdA” was tested, and the normalised inhibition (eCFP-eYFP dual reporter) was 34.5%.
“sense rArArGrArArArGrGrGrArCrUrCrCrGrUrGrGrGdTdT / antisense rCrCrCrArCrGrGrArGrUrCrCrCrUrUrUrCrUrUdTdC” showed a normalised inhibition (eCFP-eYFP dual reporter) of 45.6%.
For “sense rArArUrGrUrGrUrArCrCrCrUrUrCrGrGrGrGrAdTdT / antisense rUrCrCrCrCrGrArArGrGrGrUrArCrArCrArUrUdCdG”, the normalised inhibition (eCFP-eYFP dual reporter) was 59.6%.
Substance “sense rArCrArGrUrGrUrGrCrCrUrGrUrCrCrArUrCrUdTdT / antisense rArGrArUrGrGrArCrArGrGrCrArCrArCrUrGrUdCdC” has a normalised inhibition (eCFP-eYFP dual reporter) of 59.2%.
Work on “sense rArCrCrArArArArUrGrUrArArArUrUrCrGrArAdTdT / antisense rUrUrCrGrArArUrUrUrArCrArUrUrUrUrGrGrUdGdG” yielded a normalised inhibition (eCFP-eYFP dual reporter) of 86.4%.
“sense rArCrCrArArArUrArUrCrCrArArGrArCrCrCrAdTdT / antisense rUrGrGrGrUrCrUrUrGrGrArUrArUrUrUrGrGrUdTdC” showed a normalised inhibition (eCFP-eYFP dual reporter) of 83.9%.
“sense rArCrCrArUrUrArUrUrUrCrArCrCrCrGrArArUdTdT / antisense rArUrUrCrGrGrGrUrGrArArArUrArArUrGrGrUdGdG” showed a normalised inhibition (eCFP-eYFP dual reporter) of 88.3%.
For “sense rArCrCrCrArUrUrUrGrGrUrUrUrCrGrUrGrGrCdTdT / antisense rGrCrCrArCrGrArArArCrCrArArArUrGrGrGrUdGdG”, the normalised inhibition (eCFP-eYFP dual reporter) was 56.9%.
Substance “sense rArCrCrUrCrArUrGrArArCrUrGrGrGrArGrUrGdTdT / antisense rCrArCrUrCrCrCrArGrUrUrCrArUrGrArGrGrUdTdC” has a normalised inhibition (eCFP-eYFP dual reporter) of 58.8%.
“sense rArGrArArArGrGrGrArCrUrCrCrGrUrGrGrGrAdTdT / antisense rUrCrCrCrArCrGrGrArGrUrCrCrCrUrUrUrCrUdTdT” gave a normalised inhibition (eCFP-eYFP dual reporter) of 63.1%.
For “sense rArGrArCrCrArCrCrCrArUrUrUrGrGrUrUrUrCdTdT / antisense rGrArArArCrCrArArArUrGrGrGrUrGrGrUrCrUdTdT”, the normalised inhibition (eCFP-eYFP dual reporter) was 79.8%.
“sense rArGrArUrCrCrUrArUrUrArGrGrArArUrArCrAdTdT / antisense rUrGrUrArUrUrCrCrUrArArUrArGrGrArUrCrUdGdT” gave a normalised inhibition (eCFP-eYFP dual reporter) of 90.4%.
Substance “sense rArGrArUrGrArUrUrArUrCrCrArUrCrUrUrCrGdTdT / antisense rCrGrArArGrArUrGrGrArUrArArUrCrArUrCrUdTdT” has a normalised inhibition (eCFP-eYFP dual reporter) of 52.7%.
“sense rArGrCrCrArUrCrArCrArArUrCrArArArCrArGdTdT / antisense rCrUrGrUrUrUrGrArUrUrGrUrGrArUrGrGrCrUdGdG” was tested, and the normalised inhibition (eCFP-eYFP dual reporter) was 60.1%.
“sense rArGrCrUrCrArArGrCrArGrArGrGrCrCrUrArCdTdT / antisense rGrUrArGrGrCrCrUrCrUrGrCrUrUrGrArGrCrUdGdG” was tested, and the normalised inhibition (eCFP-eYFP dual reporter) was 89.5%.
With “sense rArGrGrGrArCrUrCrCrGrUrGrGrGrArArGrGrAdTdT / antisense rUrCrCrUrUrCrCrCrArCrGrGrArGrUrCrCrCrUdTdT” the normalised inhibition (eCFP-eYFP dual reporter) was 72.1%.
“sense rArUrArCrArGrGrArArCrUrUrCrUrArArArUrGdTdT / antisense rCrArUrUrUrArGrArArGrUrUrCrCrUrGrUrArUdTdC” showed a normalised inhibition (eCFP-eYFP dual reporter) of 52.1%.
“sense rArUrGrUrArArArUrUrCrGrArArCrCrArCrCrAdTdT / antisense rUrGrGrUrGrGrUrUrCrGrArArUrUrUrArCrArUdTdT” gave a normalised inhibition (eCFP-eYFP dual reporter) of 75%.
For “sense rArUrUrCrCrArGrGrArArArGrArArArGrGrGrAdTdT / antisense rUrCrCrCrUrUrUrCrUrUrUrCrCrUrGrGrArArUdGdG”, the normalised inhibition (eCFP-eYFP dual reporter) was 83.9%.
With “sense rArUrUrCrGrArArCrCrArCrCrArUrUrArUrUrUdTdT / antisense rArArArUrArArUrGrGrUrGrGrUrUrCrGrArArUdTdT” the normalised inhibition (eCFP-eYFP dual reporter) was 81%.
“sense rArUrUrUrGrGrUrUrUrCrGrUrGrGrCrUrGrUrCdTdT / antisense rGrArCrArGrCrCrArCrGrArArArCrCrArArArUdGdG” gave a normalised inhibition (eCFP-eYFP dual reporter) of 51.6%.
Work on “sense rCrArArGrArCrCrCrArGrCrUrCrArArGrCrArGdTdT / antisense rCrUrGrCrUrUrGrArGrCrUrGrGrGrUrCrUrUrGdGdA” yielded a normalised inhibition (eCFP-eYFP dual reporter) of 75.8%.
Substance “sense rCrArCrArArUrCrArArArCrArGrArUrCrCrUrAdTdT / antisense rUrArGrGrArUrCrUrGrUrUrUrGrArUrUrGrUrGdAdT” has a normalised inhibition (eCFP-eYFP dual reporter) of 87.4%.
For “sense rCrArCrCrCrArUrUrUrGrGrUrUrUrCrGrUrGrGdTdT / antisense rCrCrArCrGrArArArCrCrArArArUrGrGrGrUrGdGdT”, the normalised inhibition (eCFP-eYFP dual reporter) was 85.4%.
Further: test concentration or dose not given here.
